Measurements published in US11472776B2, “Quinazolinones that inhibit the formation of tau oligomers and their method of use” (OLIGOMERIX INC., priority 2016, dated 2022).
Structures can show the parent of a compound that is named as a salt.

Experiments:
[1] = target: T1, recombinant human tau 4R2N (Homo sapiens (Human), UniProt P10636); assay: AlphaLisa Assay (ALA), primary screen for inhibition of tau oligomer formation; assay type: biochemical; conditions: tau target 300 nM, 4 hours at room temperature, compound 0.098 uM-50 uM
T1 sequence (P10636 other isoform, or with tags, fused parts or gaps): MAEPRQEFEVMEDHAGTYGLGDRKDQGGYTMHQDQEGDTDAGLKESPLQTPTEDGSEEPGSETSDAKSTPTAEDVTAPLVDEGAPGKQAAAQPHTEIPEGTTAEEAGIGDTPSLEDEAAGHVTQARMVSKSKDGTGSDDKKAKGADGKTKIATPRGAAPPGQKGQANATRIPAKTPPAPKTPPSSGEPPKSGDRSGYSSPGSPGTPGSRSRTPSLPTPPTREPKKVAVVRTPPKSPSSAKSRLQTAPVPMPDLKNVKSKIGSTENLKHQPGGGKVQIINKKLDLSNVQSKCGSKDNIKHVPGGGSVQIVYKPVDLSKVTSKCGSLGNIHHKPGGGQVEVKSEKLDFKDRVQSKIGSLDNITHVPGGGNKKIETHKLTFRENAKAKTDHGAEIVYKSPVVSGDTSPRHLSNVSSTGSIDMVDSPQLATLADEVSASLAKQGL
Excerpt: (§1) Bacterial recombinant human tau 4R2N (the largest isoform of tau in the central nervous system, 441 amino acids in length, Seq. ID 1) constructs with either 6×-His or StrepII N-terminal epitope tags were purified from bacterial lysate using denaturing conditions to prepare tau in its monomeric form.
ALA Assay: AlphaLisa Assay (ALA) was used as a primary screen for identifying compounds that inhibit tau oligomer formation. It is a bead based assay that only gives signal when the beads are in close proximity to each other. When the tau monomer (target) is incubated it forms higher order aggregates (dimer, trimer, tetramer, etc) so that when the donor and acceptor beads bind to the epitope tags of tau they are in close proximity and generate signal.
Tau target (equal mixture of each construct at 300 nM) was prepared in buffer (Tris-HCl pH 7.4) and was incubated in 96-well plates at room temperature for 4 hours with vehicle control (DMSO) and a dose range of a compound of the disclosure (0.098 uM-50 uM). […] The positive control (non-incubated target) & blank (no tau) were prepared and mixed with beads in bead buffer and the plate was read immediately using the EnVision plate reader (Perkin Elmer).

[2] = target: T1, recombinant human tau 4R2N; assay: Confirmatory Assay (CONFA), SDS-PAGE quantification of tau monomer and oligomers; assay type: biochemical; conditions: tau target 300 nM, 3 hours at room temperature, compound 0.098 uM-50 uM
Experimental: as §1
CONFA Assay: Confirmatory Assay (CONFA) used as a secondary screen for confirming the mechanism of action of compounds identified as hits using the ALA assay. The assay is performed using a similar procedure as ALA except that it utilizes SDS-PAGE for visualization and quantification of tau monomer and aggregated species (dimer, trimer, tetramer, pentamer, etc.). Only a single construct of tau without epitope tags is necessary, but the assay can use the same target prepared for the ALA assay also.
For the CONFA assay, Tau target (300 nM) was prepared in buffer (Tris-HCl pH 7.4) and was incubated at room temperature for 3 hours with vehicle control (DMSO) and a dose range of a compound of the disclosure (0.098 uM-50 uM). […] AlphaView software (Protein Simple) was used for quantification of tau monomer and oligomers.

insoluble tau aggregates = assay: Reduction of insoluble tau aggregates in the brains of treated htau mice; assay type: in vivo
Experimental: (§2) Four groups of htau mice (n=25 per group) were treated from 2.5 to 6.5 months of age with 0, 10, 40 and 100 mg/kg of the compound of Example 20 milled into feed. The study was performed independently and blinded. The primary endpoint of the study was reduction of insoluble tau aggregates in the brains of the mice with statistical significance. […] Methods for biochemical analyses of tau used in this study have been previously described (Acker CM et al. Sensitive quantitative assays for tau and phospho-tau in transgenic mouse models. Neurobiol Aging. 2013. 34:338). The results in FIG. 1 show in vivo efficacy of the compound in reducing tau pathology. Levels of insoluble tau in the cortices of htau mice treated with the compound of Example 20 were determined using the pan-tau monoclonal antibody (mAb) DA31. These values were normalized to total tau in the lysates of the cortex of each mouse. Error bars indicate standard error of the mean. The P values of comparisons of the groups treated with 10, 40 or 100 mg/kg of the compound of Example 20 to the control group (white bar, 0 mg/kg) are 0.0503 (horizontal hatch bar, 10 mg/kg), 0.0154 (diagonal hatch bar, 40 mg/kg) and 0.0488 (vertical hatch bar, 100 mg/kg). * indicates P value <0.05.

[3] = Tolerability over the course of the htau mouse study; assay type: in vivo; conditions: all doses (10, 40, 100 mg/kg in feed), htau mice
Experimental: as §2

CCc1ccc(-n2c(-c3cccnc3)nc3ccccc3c2=O)cc1O [Ex. 1, 3-(4-Ethyl-3-hydroxyphenyl)-2-(pyridin-3-yl)quinazolin-4(3H)-one]
IC50 [1]: 1.9 µM | IC50 [2]: 4.18 µM

Cc1ccc(-n2c(-c3cccnc3)nc3ccccc3c2=O)cc1O [Ex. 20, 3-(4-Methyl-3-Hydroxyphenyl)-2-(Pyridin-3-yl)Quinazolin-4(3H)-One Hydrochloride]
reduction of insoluble tau, statistical significance (insoluble tau aggregates; 40 mg/kg and 100 mg/kg doses, male htau mice): achieved with statistical significance | in vivo activity: reduction of insoluble tau aggregates in the brains of treated htau mice (insoluble tau aggregates; FIG. 1 legend): achieved with statistical significance | reduction of insoluble tau (insoluble tau aggregates; htau mice, 10, 40 and 100 mg/kg milled into feed, from 2.5 to 6.5 months of age): reduced insoluble tau at all doses | tolerability over the course of the study [3]: well tolerated | toxic effects on weight, behavior or morbidity [3]: did not cause toxic effects on weight, behavior or morbidity
